Measurements reported in paper PMC4879371, “Antitrypanosomal Activities and Mechanisms of Action of Novel Tetracyclic Iridoids from Morinda lucida Benth” (Antimicrobial Agents and Chemotherapy, 2016).

system: GUTat 3.1 strain of the bloodstream form of T. brucei brucei; assay: alamarBlue in vitro viability test for trypanosome parasites; assay type: cell-based; conditions: Trypanosoma brucei, 48 h of incubation, read-out: IC50, antitrypanosomal activity
Protocol: The GUTat 3.1 strain of the bloodstream form of T. brucei brucei parasites was used in this study. Parasites were cultured in vitro according to the conditions established previously ([36]). Parasites were used when they reached a confluent concentration of 1 × 10^6 parasites/ml. Estimation of parasitemia was done with the Neubauer counting chamber. Parasites were diluted to a concentration of 3 × 10^5 parasites/ml with HM1-9 medium and were used for the various experiments.
The alamarBlue assay (Life Technologies, USA) was carried out on treated or untreated trypanosome parasites to ascertain their viability. The assay was performed in a 96-well plate following the manufacturer's instructions with modification. Briefly, 1.5 × 10^4 parasites were seeded with varied concentrations of plant material (extracts, fractions, or compounds) ranging from 0.78 μg/ml to […]. Final concentrations of EtOH and dimethyl sulfoxide (DMSO) were kept at <1% and 0.1%, respectively. After incubation of parasites with or without plant extracts or compounds for 24 h at 37°C in 5% CO2, 10% alamarBlue dye was added, and the parasites were incubated another 24 h in darkness. After a total of 48 h, the plate was read for absorbance at 540 nm using the Tecan Sunrise Wako spectrophotometer. The trend curve was drawn to obtain a 50% inhibitory concentration (IC50) of each plant material (extracts, fractions, and compounds).

| SMILES | IC50 |
| --- | --- |
| CC1(C)CC[C@]2(C(=O)O)CC[C@]3(C)C(=CC[C@@H]4[C@@]5(C)CC[C@H](O)C(C)(C)[C@@H]5CC[C@]43C)[C@@H]2C1 [oleanolic acid] | 13.7 µM |
| C[C@H]1[C@H](C)CC[C@]2(C(=O)O)CC[C@]3(C)C(=CC[C@@H]4[C@@]5(C)CC[C@H](O)C(C)(C)[C@@H]5CC[C@]43C)[C@H]12 [ursolic acid] | 15.4 µM |
| COc1c2cc(C=O)ccc2c(OC)c2c(O)cccc12 [oruwalol] | 518 µM |
